Test results: ChEMBL document CHEMBL6109152, “Harnessing the SPOP E3 Ubiquitin Ligase via a Bridged Proteolysis Targeting Chimera (PROTAC) Strategy for Targeted Protein Degradation” (J Med Chem, 2025)
Active and inactive are the calls of the source. No cut-off for these calls is given here.

Assays:
[1] = molecular target: T1, Bromodomain-containing protein 4 (Homo sapiens, UniProt O60885); assay: Inhibition of BRD4 in human HT-29 cells assessed as decrease in c-MYC protein level by measuring fold change at 10 uM incubated for 24 hrs by Western blot analysis (reference value: 1.00); assay type: cell-based
HEK293T = assay: Binding affinity to BRD4-L/GLP/SPOP in HEK293T cells assessed as compound-BRD4-GLP-SPOP quaternary complex formation at 20 to 100 uM incubated for 1 hrs by pulldown based Western blot analysis; assay type: cell-based; conditions: Homo sapiens, dose 20-100 µM
[2] = molecular target: T1, Bromodomain-containing protein 4; assay: Inhibition of BRD4 in human HT-29 cells assessed as decrease in c-MYC protein level by measuring fold change at 2.5 uM incubated for 24 hrs by Western blot analysis (reference value: 1.00); assay type: cell-based
[3] = molecular target: T2, Speckle-type POZ protein-Bromodomain-containing protein 4 (Homo sapiens, UniProt O60885+O43791); assay: PROTAC activity at SPOP/BRD4-L in human HT-29 cells assessed as induction of BRD4 long isoform degradation at 10 uM incubated for 24 hrs by Western blotting analysis relative to control; assay type: cell-based
HT-29 [4] = assay: Effect on BRD4 short isoform mRNA level in human HT-29 cells at 1 to 10 uM incubated for 24 hrs by RT-qPCR analysis; assay type: functional, cell-based; conditions: dose 1-10 µM
[5] = molecular target: T3, Speckle-type POZ protein-Bromodomain-containing protein 3 (Homo sapiens) (UniProt Q15059+O43791); assay: PROTAC activity at SPOP/BRD3 in human HT-29 cells assessed as induction of BRD3 degradation by measuring fold change at 0.313 uM incubated for 24 hrs by Western blot analysis (reference value: 1.00); assay type: cell-based
[6] = molecular target: T2, Speckle-type POZ protein-Bromodomain-containing protein 4; assay: PROTAC activity at SPOP/BRD4-S in human HT-29 cells assessed as induction of BRD4 short isoform degradation at 5 uM incubated for 24 hrs by Western blotting analysis relative to control; assay type: cell-based
HT-29 [7] = assay: Binding affinity to BRD4-L/GLP/SPOP in human HT-29 cells assessed as compound-BRD4-GLP-SPOP quaternary complex formation at 20 to 100 uM incubated for 1 hrs by pulldown based Western blot analysis; assay type: cell-based; conditions: dose 20-100 µM
HT-29 [8] = assay: Effect on BRD3 mRNA level in human HT-29 cells at 1 to 10 uM incubated for 24 hrs by RT-qPCR analysis; assay type: functional, cell-based; conditions: dose 1-10 µM
[9] = molecular target: T1, Bromodomain-containing protein 4; assay: Inhibition of BRD4 in human HT-29 cells assessed as decrease in c-MYC protein level by measuring fold change at 5 uM incubated for 24 hrs by Western blot analysis (reference value: 1.00); assay type: cell-based
[10] = molecular target: T1, Bromodomain-containing protein 4; assay: Inhibition of BRD4 in human HT-29 cells assessed as decrease in c-MYC protein level at 5 uM measured after 16 hrs by Western blot analysis relative to control; assay type: cell-based
HT-29 [11] = assay: Effect on BRD2 mRNA level in human HT-29 cells at 1 to 10 uM incubated for 24 hrs by RT-qPCR analysis; assay type: functional, cell-based; conditions: dose 1-10 µM
[12] = molecular target: T1, Bromodomain-containing protein 4; assay: Inhibition of BRD4 in human HT-29 cells assessed as decrease in c-MYC protein level by measuring fold change at 0.156 uM incubated for 24 hrs by Western blot analysis (reference value: 1.00); assay type: cell-based
[13] = molecular target: T2, Speckle-type POZ protein-Bromodomain-containing protein 4; assay: PROTAC activity at SPOP/BRD4-S in human HT-29 cells assessed as induction of BRD4 short isoform degradation by measuring fold change at 10 uM incubated for 24 hrs by Western blotting analysis (reference value: 1.00); assay type: cell-based
[14] = molecular target: T2, Speckle-type POZ protein-Bromodomain-containing protein 4; assay: PROTAC activity at SPOP/BRD4-L in human HT-29 cells assessed as induction of BRD4 long isoform degradation by measuring fold change at 0.313 uM incubated for 24 hrs by Western blotting analysis (reference value: 1.00); assay type: cell-based
[15] = molecular target: T2, Speckle-type POZ protein-Bromodomain-containing protein 4; assay: PROTAC activity at SPOP/BRD4-S in human HT-29 cells assessed as induction of BRD4 short isoform degradation incubated for 24 hrs by Western blotting analysis; assay type: cell-based
[16] = molecular target: T1, Bromodomain-containing protein 4; assay: Inhibition of BRD4 in human HT-29 cells assessed as decrease in c-MYC protein level by measuring fold change at 1.25 uM incubated for 24 hrs by Western blot analysis (reference value: 1.00); assay type: cell-based
[17] = molecular target: T4, Speckle-type POZ protein-Bromodomain-containing protein 2 (Homo sapiens) (UniProt P25440+O43791); assay: PROTAC activity at SPOP/BRD2 in human HT-29 cells assessed as induction of BRD2 degradation by measuring fold change at 2.5 uM incubated for 24 hrs by Western blot analysis (reference value: 1.00); assay type: cell-based
[18] = molecular target: T3, Speckle-type POZ protein-Bromodomain-containing protein 3 (Homo sapiens); assay: PROTAC activity at SPOP/BRD3 in human HT-29 cells assessed as induction of BRD3 degradation by measuring fold change at 10 uM incubated for 24 hrs by Western blot analysis (reference value: 1.00); assay type: cell-based
[19] = molecular target: T2, Speckle-type POZ protein-Bromodomain-containing protein 4; assay: PROTAC activity at SPOP/BRD4-S in human HT-29 cells assessed as induction of BRD4 short isoform degradation by measuring fold change at 5 uM incubated for 24 hrs by Western blotting analysis (reference value: 1.00); assay type: cell-based
[20] = molecular target: T2, Speckle-type POZ protein-Bromodomain-containing protein 4; assay: PROTAC activity at SPOP/BRD4-S in human HT-29 cells assessed as induction of BRD4 short isoform degradation at 5 uM preincubated with JQ1 for 2 hrs followed by compound addition and measured after 24 hrs by Western blot analysis; assay type: cell-based
[21] = molecular target: T4, Speckle-type POZ protein-Bromodomain-containing protein 2 (Homo sapiens); assay: PROTAC activity at SPOP/BRD2 in human HT-29 cells assessed as induction of BRD2 degradation by measuring fold change at 1.25 uM incubated for 24 hrs by Western blot analysis (reference value: 1.00); assay type: cell-based
[22] = molecular target: T2, Speckle-type POZ protein-Bromodomain-containing protein 4; assay: PROTAC activity at SPOP/BRD4-S in human HT-29 cells assessed as induction of BRD4 short isoform degradation by measuring fold change at 1.25 uM incubated for 24 hrs by Western blotting analysis (reference value: 1.00); assay type: cell-based
HT-29 [23] = assay: Downregulation of c-MYC mRNA level in human HT-29 cells at 5 to 10 uM incubated for 24 hrs by RT-qPCR analysis; assay type: functional, cell-based; conditions: dose 5-10 µM
HT-29 [24] = assay: Antiproliferative activity against human HT-29 cells assessed as cell growth inhibition incubated for 3 days by WST-8 reagent based assay; assay type: functional
[25] = molecular target: T2, Speckle-type POZ protein-Bromodomain-containing protein 4; assay: PROTAC activity at SPOP/BRD4-L in human HT-29 cells assessed as induction of BRD4 long isoform degradation by measuring fold change at 1.25 uM incubated for 24 hrs by Western blotting analysis (reference value: 1.00); assay type: cell-based
[26] = molecular target: T4, Speckle-type POZ protein-Bromodomain-containing protein 2 (Homo sapiens); assay: PROTAC activity at SPOP/BRD2 in human HT-29 cells assessed as induction of BRD2 degradation by measuring fold change at 5 uM incubated for 24 hrs by Western blot analysis (reference value: 1.00); assay type: cell-based
[27] = molecular target: T2, Speckle-type POZ protein-Bromodomain-containing protein 4; assay: PROTAC activity at SPOP/BRD4-S in human MDA-MB-231 cells assessed as induction of BRD4 short isoform degradation at 0.1 to 5 uM incubated for 24 hrs by Western blotting analysis; assay type: cell-based; conditions: dose 0.1-5 µM

T2 sequence (O43791 whole entry, looked up, other chains not shown, canonical isoform): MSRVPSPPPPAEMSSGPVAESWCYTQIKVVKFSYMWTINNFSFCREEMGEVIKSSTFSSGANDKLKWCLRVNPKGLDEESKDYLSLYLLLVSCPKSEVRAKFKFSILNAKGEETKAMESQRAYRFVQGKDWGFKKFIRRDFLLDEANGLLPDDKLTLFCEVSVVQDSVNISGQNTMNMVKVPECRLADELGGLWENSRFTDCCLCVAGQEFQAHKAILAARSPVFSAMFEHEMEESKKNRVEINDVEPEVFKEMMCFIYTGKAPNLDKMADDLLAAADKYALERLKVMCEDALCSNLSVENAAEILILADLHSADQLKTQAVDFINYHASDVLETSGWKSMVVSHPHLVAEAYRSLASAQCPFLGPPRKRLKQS
T4 sequence (O43791 whole entry, looked up): as the sequence (O43791 whole entry, looked up, other chains not shown, canonical isoform) above
T4 sequence (P25440 whole entry, looked up): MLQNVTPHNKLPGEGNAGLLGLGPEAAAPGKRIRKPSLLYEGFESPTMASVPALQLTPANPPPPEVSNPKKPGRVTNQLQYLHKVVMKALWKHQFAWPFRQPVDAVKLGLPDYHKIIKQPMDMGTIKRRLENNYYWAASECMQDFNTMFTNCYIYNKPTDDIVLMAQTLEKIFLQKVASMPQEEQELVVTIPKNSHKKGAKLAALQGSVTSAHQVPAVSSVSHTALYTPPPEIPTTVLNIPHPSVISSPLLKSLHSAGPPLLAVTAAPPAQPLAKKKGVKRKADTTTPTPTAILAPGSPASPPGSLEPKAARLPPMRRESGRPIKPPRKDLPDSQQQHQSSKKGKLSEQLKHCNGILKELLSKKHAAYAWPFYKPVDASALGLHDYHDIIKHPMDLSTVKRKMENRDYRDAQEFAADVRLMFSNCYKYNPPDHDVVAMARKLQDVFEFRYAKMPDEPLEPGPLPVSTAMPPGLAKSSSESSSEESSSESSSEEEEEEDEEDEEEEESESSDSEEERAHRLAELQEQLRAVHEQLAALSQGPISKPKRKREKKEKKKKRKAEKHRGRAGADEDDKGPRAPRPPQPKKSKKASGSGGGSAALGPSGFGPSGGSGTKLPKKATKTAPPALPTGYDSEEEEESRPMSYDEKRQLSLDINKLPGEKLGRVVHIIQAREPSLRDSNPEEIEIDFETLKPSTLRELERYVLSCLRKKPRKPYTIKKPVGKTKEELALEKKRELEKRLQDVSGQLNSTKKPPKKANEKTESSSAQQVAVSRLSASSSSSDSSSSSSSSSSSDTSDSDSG
T3 sequence (O43791 whole entry, looked up, canonical isoform): as the sequence (O43791 whole entry, looked up, other chains not shown, canonical isoform) above
T3 sequence (Q15059 whole entry, looked up, canonical isoform): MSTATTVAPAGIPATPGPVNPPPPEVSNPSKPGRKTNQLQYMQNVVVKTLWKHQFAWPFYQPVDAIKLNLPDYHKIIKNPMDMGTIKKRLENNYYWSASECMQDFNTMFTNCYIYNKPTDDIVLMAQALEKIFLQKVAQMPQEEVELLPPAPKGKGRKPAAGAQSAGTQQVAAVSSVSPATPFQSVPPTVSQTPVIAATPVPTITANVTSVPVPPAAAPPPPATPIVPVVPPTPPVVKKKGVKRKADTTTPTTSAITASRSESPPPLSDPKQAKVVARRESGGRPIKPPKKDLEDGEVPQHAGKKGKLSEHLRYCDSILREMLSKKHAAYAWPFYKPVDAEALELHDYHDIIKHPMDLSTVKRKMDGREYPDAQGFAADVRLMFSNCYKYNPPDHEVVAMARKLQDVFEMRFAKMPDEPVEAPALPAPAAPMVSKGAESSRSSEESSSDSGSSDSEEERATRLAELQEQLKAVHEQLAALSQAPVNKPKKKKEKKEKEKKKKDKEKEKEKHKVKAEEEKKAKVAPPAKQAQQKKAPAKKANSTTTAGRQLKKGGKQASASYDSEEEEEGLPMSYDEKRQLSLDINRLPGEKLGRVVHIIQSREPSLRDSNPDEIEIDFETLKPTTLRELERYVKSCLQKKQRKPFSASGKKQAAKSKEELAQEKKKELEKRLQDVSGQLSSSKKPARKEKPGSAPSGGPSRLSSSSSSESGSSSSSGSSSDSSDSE

In the case of `COc1cc2c(NC3CCN(CCCC(=O)NCCCCCCCCCCNC(=O)C[C@@H]4N=C(c5ccc(Cl)cc5)c5c(sc(C)c5C)-n5c(C)nnc54)CC3)cc(N3CCOCC3)nc2cc1OCCCN1CCCC1`, the fold change (FC) [1] is reported as 0.03, the Activity (HEK293T) is reported as “Active” and the fold change (FC) [2] is reported as 0.1. For the same molecule, the Activity [3] was 50%, the Activity (HT-29 [4]) was “inactive” and the fold change (FC) [5] was 0.9. For the same molecule, the Activity [6] was greater than 50%, the Activity (HT-29 [7]) was “Active” and the Activity (HT-29 [8]) was “inactive”. For the same molecule, the fold change (FC) [9] was 0.03, the inhibition [10] was 100% and the Activity (HT-29 [11]) was “inactive”. The fold change (FC) [12] was 1, the fold change (FC) [13] was 0.3 and the fold change (FC) [14] was 1.3. The Activity [15] was “Dose-dependent-effect”, the DC50 [15] was 6.2 µM and the fold change (FC) [16] was 0.4. It also gave a fold change (FC) [17] of 1, a fold change (FC) [18] of 0.5 and a fold change (FC) [19] of 0.4. For the same molecule, the Activity [20] was “inactive”, the fold change (FC) [21] was 1.1 and the fold change (FC) [22] was 0.8. For the same molecule, the Activity (HT-29 [23]) was “Active”, the GI50 (HT-29 [24]; HT-29, 72 h, time 3 day) was 4.5 µM and the Activity (HT-29 [24]; time 3.0 day) was “Dose-dependent-effect”. For the same molecule, the fold change (FC) [25] was 1.2, the fold change (FC) [26] was 0.9 and the Activity [27] was “Active”.
